Experiments:
Format in all cases: cell-based
[1] = tested on: VDR (VDRE-luciferase-reporter construct); test: VDRE Reporter Gene Assay in HEK cells with stable expression of VDR; conditions: Homo sapiens, HEK293, 24 hours
Method: Compound activity was also assessed by looking at a Vitamin D Response Element (VDRE) reporter gene assay, Human Embryonic Kidney cells (HEK cells) with a stable expression of VDR were cultured in 96-well plates at ˜4×10^5 cells/mL (100 μL/well) in DMEM medium containing 10% fetal calf serum. Cells were transfected with 0.2 μg per well of a VDRE-luciferase-reporter construct (from Y. Li, University of Chicago) and then treated with test agents at indicated concentrations for 24 hours. The luciferase activity was then measured following the manufacturer's instructions (Promega, Madison, Wis.).

[2] = tested on: Human promyelocytic leukemia (HL60) cells; test: HL-60 Differentiation; conditions: HL-60, 96 h, four days incubation, NBT, absorbance 570 nm
Method: Human promyelocytic leukemia (HL60) cells were obtained from the American Type Culture Collection (ATCC Cat. # CCL-240, Manassas, Va.). Cells were maintained in RPMI 1640 medium (commercially available from Invitrogen, Carlsbad, Calif.) containing 10% fetal bovine serum (commercially available from Invitrogen, Carlsbad, Calif.) at 37° C. with 5% CO2. Cells were passaged weekly and were not allowed to become >90% confluent. For the assay, cells were plated at 5×10^5 cells per well in 200 uL media. Test compounds were diluted in media in concentrations between 10^−6-10^−10 M and then added to the appropriate wells. Cells were then incubated for four days at 37° C. in 5% CO2 atmosphere. After incubation, media was aspirated from each well and 75 uL of NBT solution (nitroblue tetrazolinium: 200 ng/mL PMA (phorbol 12-myrystate 13-acetate) and 2 mg/ml NBT (nitroblue tetrazolium) in distilled H2O) was added to each well followed by further incubation for 2 hours at 37° C. Following incubation, 150 uL lysis buffer (225 mL dimethylformamide, 67.5 g SDS). PMA stock solution (2 mg/ml in ethanol) was added to each well and the plate was allowed to sit at room temperature for 4 hours. HL-60 cell differentiation was assayed, Effect of each compound on cell growth was examined as a function of time; absorbance in each well was measured at 570 nm.

[3] = tested on: Renin mRNA in As4.1 cells; test: Renin mRNA in As4.1 cells transfected with pcDNA-hVDR (real-time RT-PCR)
Method: As4.1 cells (ATCC, Manassas, Va.) were cultured in Dulbecco's Modified Eagle Medium DMEM (commercially available from Invitrogen, Carlsbad, Calif.) with 10% fetal bovine serum at 37° C. in a humidified 5% CO2-95% air atmosphere. C3;ells were transfected with the pcDNA-hVDR plasmid (provided by Yan Chun Li, University of Chicago) by LIPOFECTAMINE™ 2000 (Invitrogen, Carlsbad, Calif.). siRNA was transfected with the pcDNA-hVDR plasmid by LIPOFECTAMINE™ 2000 according to the manufacturer's protocol. Twenty-four hours after transfection, cells were treated with test agents.
Real-time reverse transcription-PCR was performed with a MyiQ Real-time PCR Detection System (commercially available from BioRad, Hercules, Calif.). […] TaqMan™ probes that were 5′ labeled with the reporter 6-carboxyfluorescein (FAM) and 3′ labeled with the quencher tetramethylrhodamine (TAMRA) were used and the primer and probe sets were obtained from Applied Biosystems (Foster City, Calif.). Temperature conditions consisted of a step of 5 minutes at 95° C., followed by 45 cycles of 60° C. for 1 minute and 95° C. for 15 seconds. Data was collected during each extension phase of the PCR reaction and analyzed with the accompanying software package (BioRad, Hercules, Calif.). Threshold cycles were determined for each gene.

[4] = tested on: PAI-1 mRNA in human coronary artery smooth muscle cells (CASMC); test: PAI-1 mRNA in CASMC; conditions: for IC50: Homo sapiens
Method: (§1) Primary culture of human coronary artery smooth muscle cells (CASMC) (commercially available from Cambrex, Walkersville, Md.) were grown in smooth muscle growth medium SmGM-2 (commercially available from Lonza Bioscience) containing 5.5 mM glucose, 5% FBS, 50 μg/ml gentamicin, 50 ng/ml amphotericin-B, 5 μg/ml insulin, 2 ng/ml human recombinant fibroblast growth factor (hFGF), and 0.5 ng/ml human recombinant epidermal growth factor (hEGF) at 37° C. in a humidified 5% CO2-95% air atmosphere. Cells were grown to >80% confluence and used within five passages.
(§2) Real-time reverse transcription-PCR was performed with a MyiQ Real-Time PCR Detection System (BioRad, Hercules, Calif.). Each sample has a final volume of 25 μl containing 100 ng of cDNA, […] each of the forward and reverse PCR primers and […] of the TaqMan™ probe for the gene of interest (Applied Biosystems, Foster City, Calif.). Temperature conditions consisted of a step of 5 minutes at 95° C., followed by 40 cycles of 60° C. for 1 minute and 95° C. for 15 seconds. Data was collected during each extension phase of the PCR reaction and analyzed with the software package (BioRad, Hercules, Calif.). Threshold cycles were determined for each gene. […]

[5] = tested on: Thrombomodulin mRNA in human coronary artery smooth muscle cells (CASMC); test: Thrombomodulin mRNA in CASMC; conditions: for EC50: Homo sapiens
Method: as §1, §2

[6] = tested on: Thrombospondin mRNA in human coronary artery smooth muscle cells (CASMC); test: Thrombospondin mRNA in CASMC; conditions: for IC50: Homo sapiens
Method: as §1, §2

Structure (SMILES) | EC50 [1] [nM] | EC50 [2] [nM] | IC50 [3] [nM] | PAI-1 mRNA in CASMC IC50 [4] | Thrombomodulin mRNA in CASMC EC50 [5] | IC50 [6] [nM] | IC50 [4] [nM] | EC50 [5] [nM] | Renin mRNA in AS4.1 IC50 [3] | Thrombospondin mRNA in CASMC IC50 [6]
C=C1[C@H](O)CC(=C/C=C2\CCC[C@]3(C)[C@@H]([C@H](C)COC(=O)C(C)(C)OC(C)=O)CC[C@@H]23)C[C@H]1O [Example 6, (2S)-2-[(1R,3R,7E,17β)-1,3-dihydroxy-2-methylene-9,10-secoestra-5,7-dien-17-yl]propyl 2-(acetyloxy)-2-methyl propanoate] | 1.3 | 12 | 18.6 | inactive | inactive | 1.3 | – | – | – | –
C=C1[C@H](O)CC(=C/C=C2\CCC[C@]3(C)[C@@H]([C@H](C)CC[C@H](C)C(C)C)CC[C@@H]23)C[C@H]1O [Example 7, (1R,3R,7E)-2-methylene-17-[(1R,4S)-1,4,5-trimethylhexyl]-9,10-secoestra-5,7-diene-1,3-diol] | 12.2 | 12.5 | 0.1 | – | – | 0.1 | 0.1 | 0.6 | – | –
C=C1[C@H](O)CC(=C/C=C2\CCC[C@]3(C)[C@@H]([C@H](C)OCCC(C)(C)O)CC[C@@H]23)C[C@H]1O [Example 8, (1R,3R,7E,17β)-17-[(1S)-1-(3-hydroxy-3-methylbutoxy)ethyl]-2-methylene-9,10-secoestra-5,7-diene-1,3-diol] | < 0.01 | 31.5 | 0.3 | – | – | 0.05 | 0.02 | 39.3 | – | –
CC(C)[C@@H](C)CC[C@@H](C)[C@H]1CC[C@H]2/C(=C/C=C3C[C@@H](O)C[C@H](O)C3)CCC[C@]12C [Example 9, (1R,3R,7E)-17-[(1R,4S)-1,4,5-trimethylhexyl]-9,10-secoestra-5,7-diene-1,3-diol] | > 10000 | 434 | – | – | – | 0.3 | 0.1 | 0.1 | inactive | –
C=C1[C@H](CO)C/C(=C\C=C2/CCC[C@]3(C)[C@@H]([C@H](C)OCCC(C)(C)O)CC[C@@H]23)C[C@H]1O [Example 17, (1R,3R,5E,7E,17β)-3-(hydroxymethyl)-17-[(1S)-1-(3-hydroxy-3-methylbutoxy)ethyl]-2-methylene-9,10-secoestra-5,7-dien-1-ol] | 153 | 92.5 | 2.2 | – | – | – | – | – | – | –

Further lines, results first:

EC50 [1] [nM] | EC50 [2] [nM] | IC50 [3] [nM] | PAI-1 mRNA in CASMC IC50 [4] | Thrombomodulin mRNA in CASMC EC50 [5] | IC50 [6] [nM] | IC50 [4] [nM] | EC50 [5] [nM] | Renin mRNA in AS4.1 IC50 [3] | Thrombospondin mRNA in CASMC IC50 [6] | Structure (SMILES)
150 | 621 | 3.9 | – | – | 0.01 | 0.04 | 0.2 | – | – | C=C1/C(=C\C=C2/CCC[C@]3(C)[C@@H]([C@H](C)C(C[C@@H](C)C(C)(C)OC)OC)CC[C@@H]23)C[C@@H](O)C[C@@H]1O (stereo partly drawn) [Example 10, (1S,3R,5Z,7E,24R)-22,25-dimethoxy-9,1 0-secoergosta-5,7,10-triene-1,3-diol]
182 | 310 | 0.002 | – | – | 0.01 | 0.01 | 28.4 | – | – | COC(C[C@@H](C)C(C)(C)OC)[C@@H](C)[C@H]1CC[C@H]2/C(=C/C=C3C[C@@H](O)C[C@H](O)C3)CCC[C@]12C (stereo partly drawn) [Example 11, (1R,3R,7E,17β)-17-[(1S,4R)-2,5-dimethoxy-1,4,5-trimethylhexyl]-9,10-secoestra-5,7-diene-1,3-diol]
16.9 | 0.2 | 0.2 | – | – | 0.02 | 11.5 | 0.1 | – | – | C=C1[C@H](O)CC(=C/C=C2\CCC[C@]3(C)[C@@H]([C@H](C)COc4ccccc4)CC[C@@H]23)C[C@H]1O [Example 12, (1R,3R,7E,17β)-2-methylene-17-[(1S)-1-methyl-2-phenoxyethyl]-9,10-secoestra-5,7-diene-1,3-diol]
276 | 52 | 0.9 | – | – | 0.03 | 0.01 | 80.2 | – | – | C=C1[C@H](O)C/C(=C/C=C2\CCC[C@]3(C)[C@@H]([C@H](C)CCCC(C)(C)O)CC[C@@H]23)C[C@@H]1F [Example 13, (1R,3S,5Z,7E,17β)-3-fluoro-17-[(1R)-5-hydroxy-1,5-dimethylhexyl]-2-methylene-9,10-secoestra-5,7-dien-1-ol]
0.6 | 9 | 0.03 | – | – | 0.02 | 0.04 | 5.1 | – | – | C=C1[C@H](O)CC(=C/C=C2\CCC[C@]3(C)[C@@H]([C@H](C)COC(=O)C(C)(C)O)CC[C@@H]23)C[C@H]1O [Example 14, (2S)-2-[(1R,3R,7E,17β)-1,3-dihydroxy-2-methylene-9,10-secoestra-5,7-dien-17-yl]propyl 2-hydroxy-2-methylpropanoate]
0.4 | 1.2 | 0.04 | – | – | – | 0.01 | 10.7 | – | inactive | C[C@H](CC[C@@H](C)C(C)(C)O)[C@H]1CC[C@H]2/C(=C/C=C3C[C@@H](O)C[C@H](O)C3)CCC[C@]12C [Example 15, (1R,3R,7E,17β)-17-[(1R,4R)-5-hydroxy-1,4,5-trimethylhexyl]-9,10-secoestra-5,7-diene-1,3-diol]
71.7 | 43 | 14.7 | – | – | – | – | – | – | – | C=C1[C@H](CO)C/C(=C\C=C2/CCC[C@]3(C)[C@@H]([C@H](C)CCCC(C)(C)O)CC[C@@H]23)C[C@H]1O [Example 16, (1R,3R,5E,7E,17β)-17-[(1R)-5-hydroxy-1,5-dimethylhexyl]-3-(hydroxymethyl)-2-methylene-9,10-secoestra-5,7-dien-1-ol]
11.3 | 10 | 0.1 | – | – | – | – | – | – | – | C=C1[C@H](O)C/C(=C\C=C2/CCC[C@]3(C)[C@@H]([C@H](C)CCCC(C)(C)O)CC[C@@H]23)C[C@@H]1F [Example 18, (1R,3S,5E,7E,17β)-3-fluoro-17-[(1R)-5-hydroxy-1,5-dimethylhexyl]-2-methylene-9,10-secoestra-5,7-dien-1-ol]
